# Source: US9775844B2, “Heterocyclic compounds and uses thereof” (Infinity Pharmaceuticals, Inc., priority 2014, dated 2017)
# pIC50: −log10 of the molar value.
# What was measured:
# [1] = target: PI3K α (Homo sapiens (Human), UniProt P42336); assay: PI3-Kinase Promega ADP-Glo Max assay; format: biochemical
# [2] = target: PI3K β (Homo sapiens (Human), UniProt P42338); assay: PI3-Kinase Promega ADP-Glo Max assay; format: biochemical
# [3] = target: PI3K δ (Homo sapiens (Human), UniProt O00329); assay: PI3-Kinase Promega ADP-Glo Max assay; format: biochemical
# Sequence of PI3K δ (O00329 whole entry): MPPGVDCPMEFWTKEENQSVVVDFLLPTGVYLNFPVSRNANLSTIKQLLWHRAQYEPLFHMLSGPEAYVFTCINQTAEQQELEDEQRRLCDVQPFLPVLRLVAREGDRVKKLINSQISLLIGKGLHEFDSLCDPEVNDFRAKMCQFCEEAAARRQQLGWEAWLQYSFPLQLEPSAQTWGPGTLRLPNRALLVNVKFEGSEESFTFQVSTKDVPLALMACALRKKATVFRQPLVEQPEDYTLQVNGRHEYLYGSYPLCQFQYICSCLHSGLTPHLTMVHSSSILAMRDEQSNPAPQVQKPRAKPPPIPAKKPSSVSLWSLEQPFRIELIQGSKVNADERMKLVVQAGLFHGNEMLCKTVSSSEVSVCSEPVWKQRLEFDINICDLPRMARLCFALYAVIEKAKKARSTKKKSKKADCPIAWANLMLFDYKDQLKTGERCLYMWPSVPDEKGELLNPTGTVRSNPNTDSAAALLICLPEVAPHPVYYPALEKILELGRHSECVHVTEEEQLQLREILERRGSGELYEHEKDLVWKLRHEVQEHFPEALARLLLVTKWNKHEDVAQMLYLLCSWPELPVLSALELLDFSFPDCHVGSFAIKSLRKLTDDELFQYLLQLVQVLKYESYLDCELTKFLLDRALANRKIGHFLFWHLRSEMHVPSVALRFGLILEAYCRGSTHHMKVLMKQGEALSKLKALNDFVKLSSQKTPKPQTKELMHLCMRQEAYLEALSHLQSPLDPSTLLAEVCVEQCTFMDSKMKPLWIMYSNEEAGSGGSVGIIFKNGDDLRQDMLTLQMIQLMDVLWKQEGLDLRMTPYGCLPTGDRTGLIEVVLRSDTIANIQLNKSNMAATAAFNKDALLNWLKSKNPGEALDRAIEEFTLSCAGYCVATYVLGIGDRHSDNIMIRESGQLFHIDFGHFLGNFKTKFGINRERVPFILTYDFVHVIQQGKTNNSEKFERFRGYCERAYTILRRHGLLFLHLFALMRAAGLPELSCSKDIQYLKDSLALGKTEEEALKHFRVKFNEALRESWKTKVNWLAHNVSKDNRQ
# Sequence of PI3K δ (P27986 whole entry partner): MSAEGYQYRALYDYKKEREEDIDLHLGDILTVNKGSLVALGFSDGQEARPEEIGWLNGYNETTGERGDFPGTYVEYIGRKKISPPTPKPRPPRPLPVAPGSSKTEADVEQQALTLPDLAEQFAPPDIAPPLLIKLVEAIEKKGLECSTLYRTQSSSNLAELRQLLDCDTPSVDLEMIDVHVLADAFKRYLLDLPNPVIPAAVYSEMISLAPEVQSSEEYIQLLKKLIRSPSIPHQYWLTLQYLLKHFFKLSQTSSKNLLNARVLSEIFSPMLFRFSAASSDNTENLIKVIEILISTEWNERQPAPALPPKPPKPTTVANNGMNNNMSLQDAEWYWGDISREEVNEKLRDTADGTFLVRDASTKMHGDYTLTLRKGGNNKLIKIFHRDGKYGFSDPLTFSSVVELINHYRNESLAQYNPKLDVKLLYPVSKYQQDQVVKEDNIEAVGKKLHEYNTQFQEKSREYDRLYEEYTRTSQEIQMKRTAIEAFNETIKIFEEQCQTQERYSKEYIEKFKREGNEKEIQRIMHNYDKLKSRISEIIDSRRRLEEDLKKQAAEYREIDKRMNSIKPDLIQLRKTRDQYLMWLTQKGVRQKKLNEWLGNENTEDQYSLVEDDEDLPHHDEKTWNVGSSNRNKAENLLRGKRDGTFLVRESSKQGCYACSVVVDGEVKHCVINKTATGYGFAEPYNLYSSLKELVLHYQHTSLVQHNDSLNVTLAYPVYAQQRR
# [4] = target: PI3K γ (Homo sapiens (Human), UniProt P48736); assay: PI3-Kinase Promega ADP-Glo Max assay; format: biochemical
# [5] = target: PI3K-δ in RAJI cells (Homo sapiens (Human), UniProt O00329); assay: RAJI p110 δ assay (PI3K-δ selective cellular assay, phospho-AKT); format: cell-based; conditions: phospho-AKT; read-out: RAJI p110 δ assay IC50
# Sequence of PI3K-δ in RAJI cells (O00329 whole entry): as the sequence (O00329 whole entry) above
# Sequence of PI3K-δ in RAJI cells (P27986 whole entry partner): as the sequence (P27986 whole entry partner) above
# [6] = target: PI3K-γ in RAW264.7 macrophages (Mus musculus (Mouse), UniProt Q9JHG7); assay: Raw264.7 p110 γ assay (PI3K-γ selective cellular assay, C5a-stimulated phospho-AKT); format: cell-based; conditions: for pIC50: phospho-AKT, read-out: Raw264.7 p110 γ assay IC50
# Sequence of PI3K-γ in RAW264.7 macrophages (Q9JHG7 whole entry): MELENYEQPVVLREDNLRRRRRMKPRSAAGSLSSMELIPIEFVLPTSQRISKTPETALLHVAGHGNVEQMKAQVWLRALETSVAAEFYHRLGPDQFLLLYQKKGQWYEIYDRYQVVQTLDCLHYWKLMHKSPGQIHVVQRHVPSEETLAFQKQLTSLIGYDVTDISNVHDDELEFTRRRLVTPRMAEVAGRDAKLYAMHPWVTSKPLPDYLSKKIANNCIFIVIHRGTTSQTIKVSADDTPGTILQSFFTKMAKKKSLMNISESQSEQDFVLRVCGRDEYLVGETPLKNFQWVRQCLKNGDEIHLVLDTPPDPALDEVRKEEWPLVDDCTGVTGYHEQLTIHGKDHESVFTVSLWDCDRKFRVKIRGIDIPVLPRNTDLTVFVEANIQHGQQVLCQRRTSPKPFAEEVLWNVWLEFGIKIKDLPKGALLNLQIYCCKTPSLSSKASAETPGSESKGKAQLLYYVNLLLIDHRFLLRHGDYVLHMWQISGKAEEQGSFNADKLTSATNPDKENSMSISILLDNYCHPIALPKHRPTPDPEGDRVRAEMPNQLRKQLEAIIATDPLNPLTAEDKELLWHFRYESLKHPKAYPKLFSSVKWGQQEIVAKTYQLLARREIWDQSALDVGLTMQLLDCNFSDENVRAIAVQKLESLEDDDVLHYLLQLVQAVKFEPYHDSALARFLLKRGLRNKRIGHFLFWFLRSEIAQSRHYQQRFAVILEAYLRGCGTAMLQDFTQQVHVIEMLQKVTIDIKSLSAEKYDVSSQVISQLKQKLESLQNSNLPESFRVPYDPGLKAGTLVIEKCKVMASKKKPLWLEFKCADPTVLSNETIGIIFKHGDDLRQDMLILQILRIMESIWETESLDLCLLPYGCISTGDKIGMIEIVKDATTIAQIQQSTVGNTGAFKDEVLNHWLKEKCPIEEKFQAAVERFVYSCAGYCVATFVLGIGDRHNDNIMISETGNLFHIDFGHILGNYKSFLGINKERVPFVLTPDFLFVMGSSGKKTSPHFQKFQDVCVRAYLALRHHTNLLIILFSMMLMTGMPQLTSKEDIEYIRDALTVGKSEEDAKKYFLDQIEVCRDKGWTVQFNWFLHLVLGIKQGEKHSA
# Sequence of PI3K β (P42338 whole entry): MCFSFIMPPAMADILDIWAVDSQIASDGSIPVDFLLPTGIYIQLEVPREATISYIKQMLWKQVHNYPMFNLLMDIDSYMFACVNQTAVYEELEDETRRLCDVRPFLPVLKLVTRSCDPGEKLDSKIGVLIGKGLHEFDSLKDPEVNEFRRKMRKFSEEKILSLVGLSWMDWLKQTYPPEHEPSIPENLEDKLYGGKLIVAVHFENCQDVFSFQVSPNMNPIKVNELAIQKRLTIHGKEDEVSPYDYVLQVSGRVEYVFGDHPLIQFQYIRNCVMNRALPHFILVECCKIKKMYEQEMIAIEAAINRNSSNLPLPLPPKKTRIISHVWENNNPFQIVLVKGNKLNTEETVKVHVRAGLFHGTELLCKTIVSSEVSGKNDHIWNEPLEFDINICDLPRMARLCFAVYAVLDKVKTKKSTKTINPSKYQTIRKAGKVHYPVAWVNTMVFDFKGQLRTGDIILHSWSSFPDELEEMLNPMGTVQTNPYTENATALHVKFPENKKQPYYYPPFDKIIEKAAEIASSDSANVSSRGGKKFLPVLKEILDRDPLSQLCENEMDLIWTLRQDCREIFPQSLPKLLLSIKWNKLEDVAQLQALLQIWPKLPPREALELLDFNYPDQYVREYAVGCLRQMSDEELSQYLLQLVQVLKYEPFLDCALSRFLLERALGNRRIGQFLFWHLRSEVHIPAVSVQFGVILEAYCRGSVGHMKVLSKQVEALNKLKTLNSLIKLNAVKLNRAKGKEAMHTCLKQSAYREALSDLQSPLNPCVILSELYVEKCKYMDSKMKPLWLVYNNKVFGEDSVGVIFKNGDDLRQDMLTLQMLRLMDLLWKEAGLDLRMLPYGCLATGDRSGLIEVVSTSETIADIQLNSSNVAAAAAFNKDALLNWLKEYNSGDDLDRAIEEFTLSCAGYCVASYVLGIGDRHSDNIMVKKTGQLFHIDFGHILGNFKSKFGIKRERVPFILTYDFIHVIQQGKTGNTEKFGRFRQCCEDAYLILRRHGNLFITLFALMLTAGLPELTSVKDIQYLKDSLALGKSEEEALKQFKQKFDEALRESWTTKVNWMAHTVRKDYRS
# Sequence of PI3K β (P27986 whole entry partner): as the sequence (P27986 whole entry partner) above
pIC50 [1],pIC50 [2],pIC50 [3],pIC50 [4],PI3K δ/PI3K γ IC50 (selectivity) [4],pIC50 [5],RAJIδ/Raw264.7 γ IC50 (selectivity) [6],pIC50 [6],Structure (SMILES)
5.00 to 5.30,5.00 to 5.30,5.00 to 5.30,5.30 to 6.00,W (W = >1 to <10),5.00 to 6.00,Y (Y = 50 to <850),7.30 to 9.00,Cc1nn(C)c(C)c1C#Cc1cccc2cc([C@H](C)NC(=O)c3c(N)nn4cccnc34)n(-c3ccccc3)c(=O)c12 [Compound 37]
5.00 to 5.30,5.00 to 5.30,5.00 to 5.30,6.30 to 7.00,X (X = 10 to <50),5.00 to 6.00,X (X = 10 to <50),7.00 to 7.30,C[C@H](NC(=O)c1cnn2cccnc12)c1cc2cccc(C#Cc3cnn(C)c3)c2c(=O)n1-c1ccccc1 [Compound 39]
5.00 to 5.30,5.00 to 5.30,5.00 to 5.30,6.30 to 7.00,Y (Y = 50 to <850),6.30 to 7.00,Y (Y = 50 to <850),7.30 to 9.00,C[C@H](NC(=O)c1c(N)nn2cccnc12)c1cc2cccc(C#Cc3cncs3)c2c(=O)n1-c1ccccc1 [Compound 41]
5.00 to 5.30,5.00 to 5.30,5.00 to 5.30,6.30 to 7.00,Y (Y = 50 to <850),6.30 to 7.00,X (X = 10 to <50),7.30 to 9.00,C[C@H](NC(=O)c1c(N)nn2cccnc12)c1cc2cccc(C#Cc3cnc[nH]3)c2c(=O)n1-c1ccccc1 [Compound 43]
5.00 to 5.30,5.30 to 6.00,5.30 to 6.00,7.00 to 9.00,X (X = 10 to <50),7.00 to 9.00,V (V = 0.1 to 1),7.30 to 9.00,C#Cc1cccc2nc([C@H](C)NC(=O)c3nccnc3N)n(-c3ccc(F)cc3)c(=O)c12 [Compound 49]

# Continued, molecule first:
Structure (SMILES),pIC50 [1],pIC50 [2],pIC50 [3],pIC50 [4],PI3K δ/PI3K γ IC50 (selectivity) [4],pIC50 [5],RAJIδ/Raw264.7 γ IC50 (selectivity) [6],pIC50 [6]
C[C@H](NC(=O)c1c(N)nn2cccnc12)c1cc2cccc(C#CC=O)c2c(=O)n1-c1ccccc1 [Compound 36],5.30 to 6.00,6.30 to 9.00,5.30 to 6.00,7.00 to 9.00,X (key: V = 0.1 to 1; W = >1 to <10; X = 10 to <50; Y = 50 to <850),6.30 to 7.00,W (key: V = 0.1 to 1; W = >1 to <10; X = 10 to <50; Y = 50 to <850),5.00 to 7.00
Cc1ncc(C#Cc2cccc3cc([C@H](C)NC(=O)c4c(N)nn5cccnc45)n(-c4ccccc4)c(=O)c23)n1C [Compound 38],5.00 to 5.30,5.00 to 5.30,5.00 to 5.30,7.00 to 9.00,Y (Y = 50 to <850),6.00 to 6.30,Y (Y = 50 to <850),7.30 to 9.00
Cc1nc(C#Cc2cccc3cc([C@H](C)NC(=O)c4c(N)nn5cccnc45)n(-c4ccccc4)c(=O)c23)cs1 [Compound 40],5.30 to 6.00,5.00 to 5.30,5.00 to 5.30,7.00 to 9.00,Y (Y = 50 to <850),6.30 to 7.00,Y (Y = 50 to <850),7.30 to 9.00
C#Cc1cccc2nc([C@H](C)NC(=O)c3c(N)nn4cccnc34)n(-c3ccc(F)c(F)c3)c(=O)c12 [Compound 45],5.00 to 5.30,5.00 to 5.30,5.00 to 5.30,6.30 to 7.00,Y (Y = 50 to <850),6.30 to 7.00,W (W = >1 to <10),7.30 to 9.00
C#Cc1cccc2nc([C@H](C)NC(=O)c3c(N)nn4cccnc34)n(-c3ccccc3)c(=O)c12 [Compound 46],5.00 to 5.30,5.30 to 6.00,5.30 to 6.00,7.00 to 9.00,Y (Y = 50 to <850),7.00 to 9.00,W (W = >1 to <10),7.30 to 9.00
C#Cc1cccc2nc([C@H](C)NC(=O)c3c(N)nn4cccnc34)n(C)c(=O)c12 [Compound 48],5.30 to 6.00,6.00 to 6.30,5.30 to 6.00,6.00 to 6.30,W (W = >1 to <10),7.00 to 9.00,V (V = 0.1 to 1),7.30 to 9.00
C#Cc1cccc2nc([C@H](C)NC(=O)c3c(N)nn4cccnc34)n(-c3ccc(F)cc3)c(=O)c12 [Compound 50],5.00 to 5.30,5.00 to 5.30,5.30 to 6.00,7.00 to 9.00,Y (Y = 50 to <850),7.00 to 9.00,W (W = >1 to <10),7.30 to 9.00
